The results in this text go back to PubChem BioAssay (NCI).

SMILES strings stand for the structures.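 1) Cells in 96-well plates. 2) Compound, 48 h, 5 concentrations. 3) Linear interpolation between surrounding doses. 4) Unreached endpoint = highest concentration. TGI: concentration producing complete growth inhibition.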 *1 amine or outer side, *2 acyl side, *3 side chain or, on linkers, in order; H or OH if unused. Where a SMILES comes first, the peptide text is derived from it. Bridges are numbered along the chain shown (N, C = ends). Roman numbers before positions name the chains, in order. [ ]: non-standard residue; d: D form. ξ: configuration not given here. X54 = N=C(N)NCCC[C@@H](NC(=N)CCCCCCC(=N)N[C@H](CCCNC(=N)N)C(=O)[*:2])C(=O)[*:1]; dIgl = N[C@@H](C(=O)O)C1Cc2ccccc2C1; Hyp = O=C(O)[C@@H]1C[C@@H](O)CN1; ξIgl = NC(C(=O)O)C1Cc2ccccc2C1; ξOic = O=C(O)C1CC2CCCCC2N1; ξR = N=C(N)NCCCC(N)C(=O)O; ξP = O=C(O)C1CCCN1; ξS = NC(CO)C(=O)O

Test systems include MDA-N; MDA-MB-231 breast; EKVX NSCLC; SNB-19 CNS; K-562 leukemia; SK-MEL-2 melanoma; TK-10 renal; NCI-H522 lung; UACC-257 melanoma.
Common to all, as to experiment: NCI anticancer screen, dose series, 48 h

For the compound `COC(=O)CN(CC(=O)NCCCBr)C1CCCCC1N(CC(=O)OC)CC(=O)OC` (stereo unspecified), the TGI with MDA-N, with MDA-MB-231 breast, in the assay on EKVX NSCLC, in the assay with SNB-19 CNS, with K-562 leukemia and with SK-MEL-2 melanoma was greater than 100 µM each time. Moreover, the TGI in the assay on TK-10 renal, in the assay with NCI-H522 lung and in the assay with UACC-257 melanoma was greater than 100 µM throughout.

With `C[C@@]1(CCCCCCCCCCc2ccccc2)C[C@@]2(C)OC(=O)C[C@H]2OO1`, the TGI in the assay with MDA-N came out at 3.96 µM; in the assay with MDA-MB-231 breast, 36.4 µM; with EKVX NSCLC, 7.2 µM; in the assay with SNB-19 CNS, 5.24 µM; in the assay on K-562 leukemia it was 13.6 µM; with SK-MEL-2 melanoma, 45 µM. For the same compound, the TGI came to 7.28 µM with TK-10 renal, 4.12 µM in the assay with NCI-H522 lung and 4.55 µM in the assay with UACC-257 melanoma.

As to `CC(C)C(Nc1ncnc2nc[nH]c12)C(=O)O` (stereo unspecified), the TGI in the assay with MDA-N, in the assay on MDA-MB-231 breast, with EKVX NSCLC, in the assay on SNB-19 CNS, in the assay on K-562 leukemia and with SK-MEL-2 melanoma was greater than 100 µM in each case. Also, the TGI in the assay on TK-10 renal, with NCI-H522 lung and in the assay with UACC-257 melanoma was greater than 100 µM each time.

In the case of `c1coc(-c2nccc3c2[nH]c2ccccc23)c1`, the TGI with MDA-N, in the assay with MDA-MB-231 breast, with EKVX NSCLC, in the assay on SNB-19 CNS, in the assay on K-562 leukemia and in the assay with SK-MEL-2 melanoma was greater than 100 µM in each case. In addition, the TGI with TK-10 renal, in the assay with NCI-H522 lung and in the assay on UACC-257 melanoma was greater than 100 µM in each case.

With `N=C(N)NCCCC(NC(=O)C1CC2CCCCC2N1C(=O)[C@H](NC(=O)C(CO)NC(=O)C(NC(=O)CNC(=O)[C@@H]1C[C@@H](O)CN1C(=O)C1CCCN1C(=O)C(CCCNC(=N)N)NC(=O)[C@@H](CCCNC(=N)N)NC(=N)CCCCCCC(=N)N[C@H](CCCNC(=N)N)C(=O)NC(CCCNC(=N)N)C(=O)N1CCCC1C(=O)N1C[C@H](O)C[C@H]1C(=O)NCC(=O)NC(C(=O)NC(CO)C(=O)N[C@@H](C(=O)N1C(C(=O)NC(CCCNC(=N)N)C(=O)O)CC2CCCCC21)C1Cc2ccccc2C1)C1Cc2ccccc2C1)C1Cc2ccccc2C1)C1Cc2ccccc2C1)C(=O)O` (stereo partly specified) (I: [ξR][ξP][Hyp]G[ξIgl][ξS][dIgl][ξOic][ξR]-OH / II: [ξR][ξP][Hyp]G[ξIgl][ξS][dIgl][ξOic][ξR]-OH; linker I:N-II:N via X54), the TGI is 5.23 µM with MDA-N; 3.49 µM in the assay on MDA-MB-231 breast; 3.67 µM in the assay on EKVX NSCLC; 5.49 µM in the assay on SNB-19 CNS; 4.03 µM in the assay with K-562 leukemia; 6.77 µM in the assay with SK-MEL-2 melanoma. Also, the TGI is 8.95 µM in the assay with TK-10 renal, greater than 10 µM with NCI-H522 lung and greater than 10 µM in the assay with UACC-257 melanoma.

In the case of `CC(=O)C1=C(C)O[C@@H]2O[C@H](COCc3ccccc3)[C@@H](OCc3ccccc3)[C@H](O)[C@@H]2S1`, the TGI was 51.7 µM in the assay with MDA-N; 40.1 µM in the assay with MDA-MB-231 breast; 82.8 µM in the assay on EKVX NSCLC; greater than 100 µM with SNB-19 CNS; 50.3 µM with K-562 leukemia; 39.1 µM in the assay with SK-MEL-2 melanoma. In addition, the TGI with TK-10 renal came out at 51.3 µM; with NCI-H522 lung, 30.9 µM; with UACC-257 melanoma it was 39.7 µM.

On to `Cn1c(-c2ccc[se]2)ccc1-c1ccc(C=O)[se]1`, for which the TGI in the assay on MDA-N, with MDA-MB-231 breast, in the assay with EKVX NSCLC, with SNB-19 CNS, in the assay with K-562 leukemia and in the assay with SK-MEL-2 melanoma was greater than 100 µM each time. Moreover, the TGI in the assay on TK-10 renal was found to be 0.439 µM; in the assay on NCI-H522 lung it was 35.2 µM; in the assay on UACC-257 melanoma it was 3.5 µM.

Consider `COc1ccccc1NC(=S)N=Nc1c(O)[nH]c2ccccc12`, for which the TGI in the assay on MDA-N, in the assay with MDA-MB-231 breast, in the assay with EKVX NSCLC, in the assay on SNB-19 CNS, in the assay on K-562 leukemia and in the assay on SK-MEL-2 melanoma was greater than 100 µM in each case. The TGI in the assay with TK-10 renal, in the assay with NCI-H522 lung and in the assay on UACC-257 melanoma was greater than 100 µM in each case.

Consider `CC(C)NC(=O)OCc1c(COC(=O)NC(C)C)c(-c2ccc[n+](COC(=O)Cc3ccccc3)c2)n2c1CCC2`, for which the TGI is greater than 100 µM in the assay with MDA-N; 74.7 µM in the assay with MDA-MB-231 breast; greater than 100 µM in the assay with EKVX NSCLC; greater than 100 µM in the assay with SNB-19 CNS; greater than 100 µM in the assay on K-562 leukemia; 62.1 µM with SK-MEL-2 melanoma. For the same compound, the TGI in the assay with TK-10 renal was greater than 100 µM; in the assay with NCI-H522 lung it was 36.2 µM; with UACC-257 melanoma, greater than 100 µM.

As for `O[C@@H]1C[C@H](Cl)c2c(Cl)sc(Cl)c21`, the TGI with MDA-N, with MDA-MB-231 breast, with EKVX NSCLC, in the assay on SNB-19 CNS, in the assay on K-562 leukemia and in the assay with SK-MEL-2 melanoma was greater than 100 µM in each case. Moreover, the TGI in the assay on TK-10 renal, in the assay on NCI-H522 lung and with UACC-257 melanoma was greater than 100 µM in each case.

`CSc1ncc2c(n1)-c1ccccc1OC2N1CCOCC1` (stereo unspecified): the TGI in the assay with MDA-N, with MDA-MB-231 breast, in the assay on EKVX NSCLC, in the assay with SNB-19 CNS, in the assay with K-562 leukemia and in the assay on SK-MEL-2 melanoma was greater than 100 µM each time. Also, the TGI with TK-10 renal, with NCI-H522 lung and in the assay with UACC-257 melanoma was greater than 100 µM throughout.

On to `CCOC(=O)c1[nH]cc(C)c1-c1cccn1-c1ccc(Cl)cc1[N+](=O)[O-]`, for which the TGI in the assay with MDA-N was 69.6 µM; in the assay on MDA-MB-231 breast it was 27.5 µM; with EKVX NSCLC it was 88.4 µM; in the assay with K-562 leukemia, 53.3 µM; with SK-MEL-2 melanoma it was 39.2 µM; with TK-10 renal, 41.7 µM. Also, the TGI with NCI-H522 lung was determined as 34.9 µM; with UACC-257 melanoma, 67.8 µM.

On to `CC(=O)OCC1OC(n2cnc3nc(Br)[nH]c(=O)c32)C(OC(C)=O)C1OC(C)=O` (stereo unspecified), for which the TGI with MDA-N, with MDA-MB-231 breast, with EKVX NSCLC, with SNB-19 CNS, in the assay with K-562 leukemia and with SK-MEL-2 melanoma was greater than 100 µM throughout. Further, the TGI with TK-10 renal, in the assay with NCI-H522 lung and in the assay on UACC-257 melanoma was greater than 100 µM in each case.
